# Counter-ions that a name gives are not always drawn.
# Columns and labels:
# [1] = system: Rec1_6 (MspI ATCC 176) mRNA; assay: quantified RT-PCR, Rec1_6; type: in vivo, rabbit; conditions: for Relative Abundance Rec1_6, 20 pg F: hypercholesterolemic plus lercanidipine racemate, eight weeks, H2 (normocholesterolemic)=1.0
# Description: Nineteen of the isolated DST clones were further validated using RT-PCR analyses; the data are presented in FIGS. 6-24 and in Tables 5-23, below. For each DST examined, the optimal annealing temperature and reagent conditions were determined for the corresponding set of primers (see Table 25) based on results from a preliminary experiment. In eight separate reactions, each set of primers was assayed to find the optimal conditions by adjusting the following four parameters: primer concentration, dNTP concentration, MgCl2 concentration, and number of Taq polymerase units. Once optimal conditions were determined, each DST was run in duplicate multiple simultaneous reactions which usually included at least four dilutions of template (cDNA library), plus control reactions lacking template, and six sequential data points for numbers of cycles. Reactions were performed using “Hot Start” PCR with the Clontech TaqStart antibody system (Cat. #5400-1). Each reaction contained 1 ml of the cDNA library dilution as template, determined amounts of AmpliTaq DNA polymerase (cat. #N808-0156), MgCl2, dNTPs (GibcoBRL cat. #10297-018), primer, and Clontech TaqStart Antibody in a 20 ml final reaction volume using 10×Taq buffer II (without MgCl2). Typically, a master mix containing all components except the template was prepared and aliquoted. Various templates were then added to these master mix samples and 20 ml volumes were subsequently dispensed into individual reaction tubes. At various times during the PCR run, tubes were removed sequentially on a predetermined schedule in order to quantitate expression of the target DST over a “window” of cycle times. After amplification, the samples were quantified via fluorimetry. PCR was performed at annealing temperatures that were five degrees above the average melting temperature of each primer pair. For primers greater than 10 bases (in a 0.05M salt solution), melting temperature was calculated using the following formula: Tm=59.9+41[% GC]−[675/Primer Length], where %GC is the decimal value. Following determination of the average melting temperature of the primer pair, the annealing temperature was determined by adding five degrees to the average melting temperature. PCR was performed using the following program: 1) 95 degrees Celsius, 3 minutes; 2) 95 degrees Celsius, 30 seconds; 3) TM+5 degrees Celsius, 30 seconds; 4) 72 degrees Celsius, for a time dependent on target length at 16 bp/second; 5) repeat steps 2-4 33 more cycles; 6) 72 degrees Celsius, 3 minutes; 7) 14 degrees Celsius, forever. Following temperature cycling, 2 ml of the PCR reaction was added to 140 ml of a 1:280 dilution of PicoGreen (Molecular Probes cat. #P-11495 (10×100 ml)) in TE pH 7.5 in a 96-well Costar UV microtiter plate (Fisher cat. #07-200623). The samples were mixed gently for 1.5 minutes and allowed to equilibrate at room temperature in the dark for 15 minutes. The concentration of the PCR products was quantified by fluorimetry using a PerSeptive Biosystems CytoFluor series 4000 multi-well plate reader. Background fluorescence was determined by using duplicate control samples that were cycled with all reaction components except the template. The mean value from these duplicate background control samples was subtracted from the corresponding experimental values prior to analyzing results. The sensitivity of the PicoGreen dsDNA assay is reported to be 250 pg/ml (50 pg dsDNA in a […] assay volume) using a fluorescence microplate reader such as was used in these measurements. […]
# [2] = in vivo studies (Soma 1998); cited from earlier work
structure (smiles),measurement,setting,value
"COC(=O)C1=C(C)NC(C)=C(C(=O)OC(C)(C)CN(C)CCC(c2ccccc2)c2ccccc2)C1c1cccc([N+](=O)[O-])c1 (racemic) [lercanidipine, lercanidipine hydrochloride]","Relative Abundance Rec1_6, 20 pg F",[1]; cycle 24,3.1
same,"Relative Abundance Rec1_6, 20 pg F",[1]; cycle 26,2.2
same,"Relative Abundance Rec1_6, 20 pg F",[1]; cycle 28,2.1
same,"Relative Abundance Rec1_6, 20 pg F",[1]; cycle 30,1.7
same,"Relative Abundance Rec1_6, 20 pg F",[1]; cycle 32,1.4
same,"Relative Abundance Rec1_6, 20 pg F",[1]; cycle 34,1.5
same,"expression of Rec1_6 at 8 weeks (RT-PCR study), in words",[1]; hypercholesterolemic animals receiving lercanidipine racemate,somewhat more elevated
same,aortic fatty lesion deposition,[2],inhibit

# — US20030215817A1, “Modulation of gene expression in formation of fatty atherosclerotic lesions” (priority 2003, published 2003)
